According to ChEMBL document CHEMBL1201862, “PubChem BioAssay data set” (2004):
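Five concentrations, 48 hours, 96-well plates. Here, GI50 denotes the concentration required for 50% inhibition of growth.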 Activity calls are given as the source filed them. Cut-off read from the data, not from the text of the source: active = GI50 up to about 1.1 µM and inactive = higher.

Tests used:
Experiment in all cases: NCI anticancer screen, dose series, 48 h
HCT-116 = test system: HCT-116
SF-295 = test system: SF-295
U-251 = test system: U-251
TK-10 = test system: TK-10
OVCAR-8 = test system: OVCAR-8
NCI-H460 = test system: NCI-H460
RPMI-8226 = test system: RPMI-8226
MCF7 = test system: MCF7
HCT-15 = test system: HCT-15
UACC-62 = test system: UACC-62
SNB-19 = test system: SNB-19
NCI-H226 = test system: NCI-H226
SN12C = test system: SN12C
SF-268 = test system: SF-268
SW-620 = test system: SW-620
HCC 2998 = test system: HCC 2998
SR = test system: SR
NCI-H23 = test system: NCI-H23
OVCAR-5 = test system: OVCAR-5
CCRF-CEM = test system: CCRF-CEM
MDA-N = test system: MDA-N
HOP-92 = test system: HOP-92
A498 = test system: A498
KM12 = test system: KM12
MDA-MB-435 = test system: MDA-MB-435
MDA-MB-231 = test system: MDA-MB-231
SF-539 = test system: SF-539
ACHN = test system: ACHN
SK-MEL-2 = test system: SK-MEL-2
BT-549 = test system: BT-549
LOX IMVI = test system: LOX IMVI
OVCAR-4 = test system: OVCAR-4
COLO 205 = test system: COLO 205
IGROV-1 = test system: IGROV-1
HOP-62 = test system: HOP-62
SNB-75 = test system: SNB-75
UO-31 = test system: UO-31
T47D = test system: T47D
NCI/ADR-RES = test system: NCI/ADR-RES
CAKI-1 = test system: CAKI-1
PC-3 = test system: PC-3
UACC-257 = test system: UACC-257
Hs-578T = test system: Hs-578T
M14 = test system: M14
SK-OV-3 = test system: SK-OV-3
DU-145 = test system: DU-145
OVCAR-3 = test system: OVCAR-3
786-0 = test system: 786-0
K562 = test system: K562
EKVX = test system: EKVX
HT-29 = test system: HT-29
MOLT-4 = test system: MOLT-4
SK-MEL-28 = test system: SK-MEL-28
RXF 393 = test system: RXF 393
A549 = test system: A549
HL-60 = test system: HL-60
SK-MEL-5 = test system: SK-MEL-5
NCI-H522 = test system: NCI-H522

Measured: GI50

N=C(N)NCCCC(NC(=O)OCCCCCn1ccc(N)nc1=O)C(=O)O (stereo not given)
inactive: HCT-116 > 100 µM | SF-295 > 100 µM | U-251 > 100 µM | TK-10 > 100 µM | OVCAR-8 > 100 µM | NCI-H460 > 100 µM | RPMI-8226 > 100 µM | MCF7 > 100 µM | UACC-62 > 100 µM | SNB-19 > 100 µM | NCI-H226 > 100 µM | SN12C > 100 µM | SF-268 > 100 µM | SW-620 > 100 µM | HCC 2998 > 100 µM | SR > 100 µM | NCI-H23 > 100 µM | OVCAR-5 > 100 µM | CCRF-CEM > 100 µM | MDA-N > 100 µM | HOP-92 > 100 µM | A498 > 100 µM | KM12 > 100 µM | MDA-MB-435 > 100 µM | MDA-MB-231 > 100 µM | SF-539 > 100 µM | ACHN > 100 µM | SK-MEL-2 > 100 µM | BT-549 > 100 µM | LOX IMVI > 100 µM | OVCAR-4 > 100 µM | COLO 205 > 100 µM | IGROV-1 > 100 µM | HOP-62 > 100 µM | SNB-75 > 100 µM | UO-31 > 100 µM | T47D > 100 µM | NCI/ADR-RES > 100 µM | CAKI-1 > 100 µM | PC-3 > 100 µM | UACC-257 > 100 µM | Hs-578T > 100 µM | M14 > 100 µM | SK-OV-3 > 100 µM | DU-145 > 100 µM | OVCAR-3 > 100 µM | 786-0 > 100 µM | K562 > 100 µM | EKVX > 100 µM | HT-29 > 100 µM | MOLT-4 > 100 µM | SK-MEL-28 > 100 µM | RXF 393 > 100 µM | A549 > 100 µM | HL-60 > 100 µM
> 100 µM: HCT-15

Nc1ncc2c(n1)-c1ccccc1OC2NC1CC1 (stereo not given)
> 100 µM: HCT-15
inactive: HCT-116 > 100 µM | SF-295 > 100 µM | U-251 > 100 µM | TK-10 > 100 µM | OVCAR-8 > 100 µM | NCI-H460 > 100 µM | RPMI-8226 > 100 µM | MCF7 > 100 µM | UACC-62 > 100 µM | SNB-19 > 100 µM | NCI-H226 > 100 µM | SN12C > 100 µM | SF-268 > 100 µM | SW-620 > 100 µM | SR > 100 µM | NCI-H23 > 100 µM | OVCAR-5 > 100 µM | CCRF-CEM > 100 µM | MDA-N > 100 µM | HOP-92 > 100 µM | A498 > 100 µM | KM12 > 100 µM | MDA-MB-435 > 100 µM | MDA-MB-231 > 100 µM | SF-539 > 100 µM | SK-MEL-5 > 100 µM | ACHN > 100 µM | SK-MEL-2 > 100 µM | BT-549 > 100 µM | LOX IMVI > 100 µM | OVCAR-4 > 100 µM | COLO 205 > 100 µM | IGROV-1 > 100 µM | SNB-75 > 100 µM | UO-31 > 100 µM | T47D > 100 µM | NCI/ADR-RES > 100 µM | CAKI-1 > 100 µM | PC-3 > 100 µM | UACC-257 > 100 µM | NCI-H522 > 100 µM | Hs-578T > 100 µM | M14 > 100 µM | SK-OV-3 > 100 µM | DU-145 > 100 µM | OVCAR-3 > 100 µM | 786-0 > 100 µM | EKVX 97.5 µM | HT-29 > 100 µM | MOLT-4 > 100 µM | RXF 393 > 100 µM | A549 > 100 µM | HL-60 > 100 µM
